Assay results as given in publication PMC8245078, “Development of novel benzofuran-isatin conjugates as potential antiproliferative agents with apoptosis inducing mechanism in Colon cancer” (Journal of Enzyme Inhibition and Medicinal Chemistry, 2021).

Legend:
[1] = system: human skin fibroblast (HFF-1) normal cells; experiment: MTT cell viability assay on normal cells; type: cell-based; details: HFF-1, incubation for 24 h
Protocol: Furthermore, selective cytotoxicity of compounds 5a and 5d was studied on human skin fibroblast (HFF-1) normal cells. […]
each well, and plates were incubated for 10 minutes at room temperature. After staining, unbound dye was removed by washing five times with 1 % acetic acid and the plates were air dried. Bound stain was subsequently solubilized with 10 mM trizma base, and the absorbance was read on an automated plate reader at a wavelength of 515 nm. For suspension cells, the methodology was the same except that the assay was terminated by fixing settled cells at the bottom of the wells by gently adding 50 μL of 80 % TCA (final concentration, 16 % TCA).
Using the seven absorbance measurements [time zero, (Tz), control growth, (C), and test growth in the presence of drug at the five concentration levels (Ti)], the percentage growth was calculated at each of the drug concentrations levels. Percentage growth inhibition was calculated […]
Three dose response parameters were calculated for each experimental agent. […] The drug concentration resulting in total growth inhibition (TGI) was calculated from Ti = Tz. […]
The cytotoxicity effect of compounds on the colorectal cancer cell lines, SW620 and HT29 in addition to the normal human fibroblasts was measured by MTT (3-(4, 5-dimethylthiazol-2-yl)-2,5-diphenyltetrazolium bromide) (Sigma-Aldrich, St. Louis, MO, USA) as previously described. […]

[2] = system: anti-apoptotic Bcl2 protein in SW-620 cells; experiment: Western blot analysis of Bcl2; type: cell-based, human; details: SW-620, 5 μM and 10 μM, 24 h
Description: To further examine the possible mechanism of apoptosis, the effect of compounds 5a and 5d on certain apoptosis-related proteins was studied. Bcl2 protein as a critical component of the mitochondrial apoptotic pathway is reported to be overexpressed in numerous tumours causing survival of cancer cell[62]. In addition, it was reported that caspase activation during apoptosis leads to proteolytic cleavage of several cellular substrates participating in DNA reparation including [poly (ADP-ribose) polymerase][63]. Therefore, the impact of compounds 5a and 5d on the anti-apoptotic protein Bcl2 and the level of cleaved PARP was examined (Figure 7). […]
2.5. Western Blot Analysis
All cells were seeded in a 100 mm dish (1 × 10^6 cells per dish) in 5% CO2 at 37 °C in the appropriate culture medium. The cells with around 50% confluency were treated with compounds for 24h. At the experiment day, cells were washed with 1x PBS, harvested and lysed in RIPA lysis buffer, combined with protease inhibitors, (Sigma-Aldrich, St. Louis, MO, USA) as described previously (39)). The total protein concentration was evaluated by the colorimetric Bradford protein assay (BIO-RAD inc, CA, USA) at 595 nm absorbance. Lysates were loaded in […]
equal concentration and separated by sodium dodecyl sulfate-polyacrylamide gel electrophoresis (SDS-PAGE) and then transferred to a nitrocellulose membrane by semi-dry. […]

HT29 = type: cell-based; details: Homo sapiens, HT-29; HT29, five-dose test; read-out: LC50 (the source's name)
SR = type: cell-based; details: five-dose test
T-47D = type: cell-based; details: Homo sapiens, T47D, five-dose test
M14 = type: cell-based; details: M14, five-dose test
[3] = Homo sapiens, read-out: LC50 (the source's name)

Row | Structure (SMILES) | effect on fibroblast normal cell viability [1] | Bcl2 protein expression (Western blot, in words) [2] | CC50 (HT29) [µM] | CC50 (SR; [3]) [µM] | TGI (SR) [µM] | GI50 (T-47D) [µM] | LC50 (T-47D) [µM] | CC50 (M14; [3]) [µM] | TGI (M14) [µM]
1 | Cc1c(C(=O)N/N=C2\C(=O)Nc3ccccc32)oc2ccccc12 [Compound 5a] | little effect | dose dependent inhibition | – | – | – | – | – | – | –
2 | COc1ccc2c(c1)/C(=N/NC(=O)c1oc3ccccc3c1C)C(=O)N2 [Compound 5d] | little effect | significant inhibition | > 100 | > 100 | >100 | 1.7 | > 100 | > 100 | >100
